Here are results for 31 molecules from US9617271B2, “Triazolo compounds” (Hoffmann-La Roche Inc., priority 2012, dated 2017).

One may read the IC50 as the concentration needed to halve the response being measured.

The experiment deals with human PDE10A (Homo sapiens (Human), UniProt Q9Y233). Nature of the experiment: human PDE10A full length assay ([3H]-cGMP SPA). It is filed as biochemical. The conditions noted are these: human PDE10A full length enzyme, 50 nM cGMP + 50 nM [3H]-cGMP, 20 minutes at room temperature; read-out: PDE10A inhibition IC50. As to the method: The human PDE10A full length assay was performed in 96-well micro titer plates. The reaction mixture of 50 μl contained 20 mM HEPES pH=7.5/10 mM MgCl2/0.05 mg/ml BSA (Sigma cat. #A-7906), 50 nM cGMP (Sigma, cat. #G6129) and 50 nM [3H]-cGMP (GE Healthcare, cat. #TRK392 S.A. 13.2 Ci/mmol), 3.75 ng/well PDE10A enzyme (Enzo Life Science, Lausen, Switzerland cat #SE-534) with or without a specific test compound. A range of concentrations of the potential inhibitor was used to generate data for calculating the concentration of inhibitor resulting in 50% of the effect (e.g. IC50, the concentration of the competitor inhibiting PDE10A activity by 50%). Non-specific activity was tested without the enzyme. The reaction was initiated by the addition of the substrate solution (cGMP and [3H]-cGMP) and allowed to progress for 20 minutes at room temperature. The reaction was terminated by adding 25 μl of YSi-SPA scintillation beads (GE Healthcare, cat. #RPNQ0150) in 18 mM zinc sulphate solution (stop reagent). After 1 h under shaking, the plate was centrifuged one minute at 170 g to allow beads to settle. Afterwards, radioactive counts were measured on a Perkin Elmer TopCount Scintillation plate reader.
Sequence of human PDE10A (Q9Y233 other isoform, or with tags, fused parts or gaps): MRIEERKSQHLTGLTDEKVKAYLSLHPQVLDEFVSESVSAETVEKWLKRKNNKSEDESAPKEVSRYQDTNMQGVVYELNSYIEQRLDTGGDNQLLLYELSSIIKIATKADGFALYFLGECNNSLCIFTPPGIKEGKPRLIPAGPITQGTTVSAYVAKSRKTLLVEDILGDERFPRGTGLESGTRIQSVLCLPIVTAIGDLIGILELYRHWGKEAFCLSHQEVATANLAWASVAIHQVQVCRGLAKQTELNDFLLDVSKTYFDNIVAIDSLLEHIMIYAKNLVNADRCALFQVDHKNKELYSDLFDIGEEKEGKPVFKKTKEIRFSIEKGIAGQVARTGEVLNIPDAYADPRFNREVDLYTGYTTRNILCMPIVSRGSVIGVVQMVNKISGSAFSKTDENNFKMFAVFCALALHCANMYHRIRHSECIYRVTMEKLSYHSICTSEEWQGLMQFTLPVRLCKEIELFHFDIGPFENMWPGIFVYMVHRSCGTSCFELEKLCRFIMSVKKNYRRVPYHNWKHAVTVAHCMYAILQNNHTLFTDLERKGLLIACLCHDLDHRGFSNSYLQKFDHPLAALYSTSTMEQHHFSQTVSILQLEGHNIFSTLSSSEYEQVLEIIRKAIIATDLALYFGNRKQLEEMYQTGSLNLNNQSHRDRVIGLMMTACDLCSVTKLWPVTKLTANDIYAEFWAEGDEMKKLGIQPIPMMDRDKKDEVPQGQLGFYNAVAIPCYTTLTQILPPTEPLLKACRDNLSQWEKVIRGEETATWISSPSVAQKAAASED
For `COc1cc(CCc2nc(N3CCCC3)nn2C)nn2c(C)c(C)nc12` [Example 12, 8-Methoxy-2,3-dimethyl-6-(2-(1-methyl-3-(pyrrolidin-1-yl)-1H-1,2,4-triazol-5-yl)ethyl)imidazo[1,2-b]pyridazine], the IC50 turned out to be 3 nM.

For the molecule `Cc1nc2c(C(C)C)cc(CCc3nc(N4CCCC4)nn3C)nn2c1C` [Example 45, 8-Isopropyl-2,3-dimethyl-6-(2-(1-methyl-3-(pyrrolidin-1-yl)-1H-1,2,4-triazol-5-yl)ethyl)-imidazo[1,2-b]pyridazine], the half-inhibitory concentration (IC50) was determined as 9 nM. Take `Cc1c(C#N)nc2ccc(CCc3nc(N4CCCC4)nn3C)nn12` [Example 5, 3-Methyl-6-[2-(2-methyl-5-pyrrolidin-1-yl-2H-[1,2,4]triazol-3-yl)-ethyl]-imidazo[1,2-b]pyridazine-2-carbonitrile]: the IC50 amounted to 21 nM. Under `Cc1nc2cc(C3CCCCC3)c(CCc3nc(N4CCCC4)nn3C)nn2c1C` [Example 58, 7-Cyclohexyl-2,3-dimethyl-6-(2-(1-methyl-3-(pyrrolidin-1-yl)-1H-1,2,4-triazol-5-yl)ethyl)imidazo[1,2-b]pyridazine] stands 19.8 nM. Then `Cc1c(C(F)(F)F)nc2ccc(CCc3nc(N4CCCC4)n(C)n3)nn12` [Example 6, 3-Methyl-6-(2-(1-methyl-5-(pyrrolidin-1-yl)-1H-1,2,4-triazol-3-yl)ethyl)-2-(trifluoromethyl)imidazo[1,2-b]pyridazine], with 19 nM. `Cc1c(Cl)nc2ccc(C#Cc3nc(N4CCCC4)nn3C)nn12` [Example 38, 2-Chloro-3-methyl-6-((1-methyl-3-(pyrrolidin-1-yl)-1H-1,2,4-triazol-5-yl)ethynyl)-imidazo[1,2-b]pyridazine]: the IC50 was found to be 1.33 nM. Take `CNC(=O)c1cc2nc(C)c(C)n2nc1C#Cc1nc(N2CCCC2)nn1C` [Example 39, N,2,3-Trimethyl-6-((1-methyl-3-(pyrrolidin-1-yl)-1H-1,2,4-triazol-5-yl)ethynyl)imidazo[1,2-b]pyridazine-7-carboxamide]: the half-maximal inhibitory concentration (IC50) amounted to 1400 nM.

Take `Cn1nc(N2CCCC2)nc1C#Cc1ccc2nc(Cl)cn2n1` [Example 36, 2-Chloro-6-((1-methyl-3-(pyrrolidin-1-yl)-1H-1,2,4-triazol-5-yl)ethynyl)imidazo[1,2-b]pyridazine]: the IC50 was 56 nM.

Regarding `CCN(CC)c1nc(CCc2nc(N3CCCC3)nn2C)nn2c(C)c(C)nc12` [Example 35, N,N-Diethyl-6,7-dimethyl-2-(2-(1-methyl-3-(pyrrolidin-1-yl)-1H-1,2,4-triazol-5-yl)ethyl)imidazo[1,2-f][1,2,4]triazin-4-amine], the IC50 amounted to 1.41 nM.

As for `Cc1nc2c(C3CC3)cc(CCc3nc(N4CCCC4)nn3C)nn2c1C` [Example 49, 8-Cyclopropyl-2,3-dimethyl-6-(2-(1-methyl-3-(pyrrolidin-1-yl)-1H-1,2,4-triazol-5-yl)ethyl)imidazo[1,2-b]pyridazine], the IC50 came to 2.9 nM. In the case of `Cc1nnc2ccc(CCc3nc(N4CCCC4)nn3C)nn12` [Example 57, 3-Methyl-6-(2-(1-methyl-3-(pyrrolidin-1-yl)-1H-1,2,4-triazol-5-yl)ethyl)[1,2,4]triazolo[4,3-b]pyridazine], the IC50 was determined as 534 nM.

Turning to `Cn1nc(N2CCCC2)nc1CCc1ccc2nc(Cl)cn2n1` [Example 37, 2-Chloro-6-(2-(1-methyl-3-(pyrrolidin-1-yl)-1H-1,2,4-triazol-5-yl)ethyl)imidazo[1,2-b]pyridazine], the IC50 was 338 nM. Under `Cc1nc2c(C3CCC3)cc(CCc3nc(N4CCCC4)nn3C)nn2c1C` [Example 48, 8-Cyclobutyl-2,3-dimethyl-6-(2-(1-methyl-3-(pyrrolidin-1-yl)-1H-1,2,4-triazol-5-yl)ethyl)imidazo[1,2-b]pyridazine] stands 2.3 nM; under `Cc1nc2c(N(C)C)nc(CCc3nc(N4CCCC4)nn3C)nn2c1C` [Example 22, N,N,6,7-Tetramethyl-2-(2-(1-methyl-3-(pyrrolidin-1-yl)-1H-1,2,4-triazol-5-yl)ethyl)-imidazo[1,2-f][1,2,4]triazin-4-amine], 2 nM. As for `Cc1cc(C#Cc2nc(N3CCCC3)nn2C)nn2c(C)c(C(F)(F)F)nc12` [Example 54, 3,8-Dimethyl-6-((1-methyl-3-(pyrrolidin-1-yl)-1H-1,2,4-triazol-5-yl)ethynyl)-2-(trifluoro-methyl)imidazo[1,2-b]pyridazine], the IC50 amounted to 1.6 nM.

Consider `Cc1c(C(F)(F)F)nc2ccc(OCc3nc(N4CCCC4)nn3C)nn12` [Example 23, 3-Methyl-6-((1-methyl-3-(pyrrolidin-1-yl)-1H-1,2,4-triazol-5-yl)methoxy)-2-(trifluoro-methyl)imidazo[1,2-b]pyridazine], for which the IC50 worked out at 290 nM. For the molecule `Cc1c(C(F)(F)F)nc2c(OCC(F)(F)F)cc(C#Cc3nc(N4CCCC4)nn3C)nn12` [Example 62, 3-Methyl-6-((1-methyl-3-(pyrrolidin-1-yl)-1H-1,2,4-triazol-5-yl)ethynyl)-8-(2,2,2-trifluoroethoxy)-2-(trifluoromethyl)imidazo[1,2-b]pyridazine], the IC50 was determined as 3 nM. Consider `Cc1cn2nc(C#Cc3nc(N4CCCC4)nn3C)ccc2n1` [Example 67, 2-Methyl-6-((1-methyl-3-(pyrrolidin-1-yl)-1H-1,2,4-triazol-5-yl)ethynyl)imidazo[1,2-b]pyridazine], for which the IC50 amounted to 10.2 nM. Then `Cc1nc2c(OC(C)C)cc(/C=C/c3nc(N4CCCC4)nn3C)nn2c1C` [Example 26, (E)-8-Isopropoxy-2,3-dimethyl-6-(2-(1-methyl-3-(pyrrolidin-1-yl)-1H-1,2,4-triazol-5-yl)vinyl)imidazo[1,2-b]pyridazine], with 0.493 nM; and `Cc1c(C(F)F)nc2ccc(C#Cc3nc(N4CCCC4)nn3C)nn12` [Example 7, 2-(Difluoromethyl)-3-methyl-6-((1-methyl-3-(pyrrolidin-1-yl)-1H-1,2,4-triazol-5-yl)ethynyl)imidazo[1,2-b]pyridazine], with 5 nM; and `Cc1nc2c(NC(C)C)nc(CCc3nc(N4CCCC4)nn3C)nn2c1C` [Example 31, N-Isopropyl-6,7-dimethyl-2-(2-(1-methyl-3-(pyrrolidin-1-yl)-1H-1,2,4-triazol-5-yl)ethyl)imidazo[1,2-f][1,2,4]triazin-4-amine], with 3 nM.

For `Cc1nc2c(C3CCC3)cc(C#Cc3nc(N4CCCC4)nn3C)nn2c1C` [Example 47, 8-Cyclobutyl-2,3-dimethyl-6-((1-methyl-3-(pyrrolidin-1-yl)-1H-1,2,4-triazol-5-yl)ethynyl)imidazo[1,2-b]pyridazine], the half-inhibitory concentration (IC50) turned out to be 0.9 nM. Under `Cc1nc2ccc(OCc3nc(N4CCCC4)nn3C)nn2c1C` [Example 30, 2,3-Dimethyl-6-((1-methyl-3-(pyrrolidin-1-yl)-1H-1,2,4-triazol-5-yl)methoxy)imidazo[1,2-b]pyridazine] stands 98 nM; under `Cc1cc2nc(C)c(C)n2nc1C#Cc1nc(N2CCCC2)nn1C` [Example 17, 2,3,7-Trimethyl-6-((1-methyl-3-(pyrrolidin-1-yl)-1H-1,2,4-triazol-5-yl)ethynyl)imidazo[1,2-b]pyridazine], 1 nM. For the molecule `CNC(=O)c1cc(CCc2nc(N3CCCC3)nn2C)nn2c(C)c(C)nc12` [Example 41, N,2,3-Trimethyl-6-(2-(1-methyl-3-(pyrrolidin-1-yl)-1H-1,2,4-triazol-5-yl)ethyl)imidazo-[1,2-b]pyridazine-8-carboxamide], the IC50 worked out at 2 nM.

In the case of `Cc1nc2c3c(c(CCc4nc(N5CCCC5)nn4C)nn2c1C)CCCC3` [Example 24, 2,3-Dimethyl-6-(2-(1-methyl-3-(pyrrolidin-1-yl)-1H-1,2,4-triazol-5-yl)ethyl)-7,8,9,10-tetrahydroimidazo[2,1-a]phthalazine], the IC50 was 6 nM. Under `Cc1nc2ccc(C#Cc3nc(N4CCCC4)nn3C)nn2c1Cl` [Example 65, 3-Chloro-2-methyl-6-((1-methyl-3-(pyrrolidin-1-yl)-1H-1,2,4-triazol-5-yl)ethynyl)imidazo[1,2-b]pyridazine] stands 2.5 nM; under `Cc1c(C#N)nc2ccc(/C=C/c3nc(N4CCCC4)nn3C)nn12` [Example 3, 3-Methyl-6-[(E)-2-(2-methyl-5-pyrrolidin-1-yl-2H-[1,2,4]triazol-3-yl)vinyl]-imidazo[1,2-b]pyridazine-2-carbonitrile], 5 nM; under `Cc1nc2c(C3CC3)cc(C#Cc3nc(N4CCCC4)nn3C)nn2c1C` [Example 46, 8-Cyclopropyl-2,3-dimethyl-6-((1-methyl-3-(pyrrolidin-1-yl)-1H-1,2,4-triazol-5-yl)ethynyl)imidazo[1,2-b]pyridazine], 1 nM. Under `CNC(=O)c1cc(C#Cc2nc(N3CCCC3)nn2C)nn2c(C)c(C)nc12` [Example 40, N,2,3-Trimethyl-6-((1-methyl-3-(pyrrolidin-1-yl)-1H-1,2,4-triazol-5-yl)ethynyl)imidazo-[1,2-b]pyridazine-8-carboxamide] stands 1 nM. For `Cc1c(C(F)(F)F)nc2ccc(C#Cc3nc(N4CCCC4)n(C)n3)nn12` [Example 4, 3-Methyl-6-((1-methyl-5-(pyrrolidin-1-yl)-1H-1,2,4-triazol-3-yl)ethynyl)-2-(trifluoromethyl)imidazo[1,2-b]pyridazine], the half-inhibitory concentration (IC50) was determined as 4 nM.
